Source: the supplement of paper PMC10307832

What was measured:
Assay in all cases: relative viability (nuclei count vs DMSO), 5 days (fraction); higher = more cells survive
[1] = compound: CN[C@@H]1C[C@H]2O[C@@](C)([C@@H]1OC)n1c3ccccc3c3c4c(c5c6ccccc6n2c5c31)C(=O)NC4 [Staurosporine]
In short: (§1)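 Nuclei counted with MetaXpress define viability as the ratio of treated to vehicle wells, given as a median across plates. The lung cancer cell lines were in 1536-well plates, pinned with five √10-spaced library-drug doses and imaged at 4× after 5 days and Hoechst staining. Plates passed with control CV below 25% and at least one doubling.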

[2] = compound: CC1=C(CC(=O)O)c2cc(F)ccc2/C1=C\c1ccc([S+](C)[O-])cc1 [Sulindac]
In short: as §1

[3] = compound: CN[C@@H]1C[C@H]2O[C@@](C)([C@@H]1OC)n1c3ccccc3c3c4c(c5c6ccccc6n2c5c31)C(=O)NC4 [Staurosporine] + CS(=O)(=O)CCNCc1ccc(-c2ccc3ncnc(Nc4ccc(OCc5cccc(F)c5)c(Cl)c4)c3c2)o1 [Lapatinib] (partner 2 µM)
In short: (§2)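 Relative viability divides the nuclei count in treated wells by that in vehicle wells. Lung cancer cell lines were seeded in 1536-well plates, dosed by pin tool the next day, and fixed and stained after 5 days in one step with final 0.05% Triton X-100, 1% formaldehyde and 1 ug/ml Hoechst. Dosing was a single drug or a fixed anchor-drug dose plus five library-drug doses (not always all listed) in √10 steps, and values are medians of duplicate plates imaged at 4×.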

[4] = compound: O=c1[nH]cc(F)c(=O)[nH]1 [5-Fluorouracil] + COc1cc2c(Oc3ccc(NC(=O)C4(C(=O)Nc5ccc(F)cc5)CC4)cc3F)ccnc2cc1OCCCN1CCOCC1 [Foretinib] (partner 0.25 µM)
In short: as §2

**Q.** For UMC-11, which relative viability ([1]; 0.005 µM) is on record?
**A.** Its relative viability is 0.977.

**Q.** And the relative viability ([1]; 0.01581 µM)?
**A.** Its relative viability is 0.328.

**Q.** And the relative viability ([1]; 0.05 µM)?
**A.** The relative viability was 0.295.

**Q.** And the relative viability ([1]; 0.1581 µM)?
**A.** The relative viability was 0.123.

**Q.** What about the relative viability ([1]; 0.5 µM) of the same cell line?
**A.** The relative viability was 0.0871.

**Q.** And the relative viability ([2]; 0.08 µM)?
**A.** Its relative viability is 1.14.

**Q.** What about the relative viability ([2]; 0.253 µM) of the same cell line?
**A.** Its relative viability is 1.01.

**Q.** And the relative viability ([2]; 0.8 µM)?
**A.** Its relative viability is 0.824.

**Q.** What about the relative viability ([2]; 2.53 µM) of the same cell line?
**A.** Its relative viability is 0.869.

**Q.** And the relative viability ([2]; 8 µM)?
**A.** The relative viability was 1.11.

**Q.** And the relative viability ([3]; first compound 0.005 µM)?
**A.** The relative viability was 1.14.

**Q.** What about the relative viability ([3]; first compound 0.01581 µM) of the same cell line?
**A.** Its relative viability is 0.158.

**Q.** And the relative viability ([3]; first compound 0.05 µM)?
**A.** Its relative viability is 0.408.

**Q.** And the relative viability ([3]; first compound 0.1581 µM)?
**A.** Its relative viability is 0.141.

**Q.** And the relative viability ([3]; first compound 0.5 µM)?
**A.** The relative viability was 0.0855.

**Q.** What about the relative viability ([4]; first compound 0.02 µM) of the same cell line?
**A.** Its relative viability is 0.983.

**Q.** What about the relative viability ([4]; first compound 0.2 µM) of the same cell line?
**A.** The relative viability was 0.728.

**Q.** What about the relative viability ([4]; first compound 0.6325 µM) of the same cell line?
**A.** Its relative viability is 0.518.

**Q.** What about the relative viability ([4]; first compound 2 µM) of the same cell line?
**A.** The relative viability was 0.396.
